According to patent publication US20260325538A1, “THERAPY” (priority 2023, published 2026):

How the values were obtained:
[1] = tested on: Klebsiella pneumoniae ST147 (NDM-1 and KPC-2); assay: Checkerboard MIC, fixed ratio of sBLI to antibiotic (Examples 7-10); assay type: cell-based; settings: caMHB 29.4 μM Zn2+
Source text: The antibiotics and serine β-lactamase-inhibitors (sBLIs) were purchased from the following suppliers: Ceftazidime (CAZ): Sigma-Aldrich; Cefepime (FEP): Sigma-Aldrich; Cefpodoxime (CEFP): MedChemExpress; Sulbactam (SUL): Sigma-Aldrich Avibactam (AVI): Biosynth; Vaborbactam (VAB): ABCR; Tazobactam (TAZ): Sigma-Aldrich; Taniborbactam (TAN): Sigma-Aldrich.
In each of Examples 3-23, the compound of Example 26 of WO 2018/033719 was employed as the zinc chelator. The following abbreviations are used in these examples: sBLI means serine-β-lactamase inhibitor; CFU means colony-forming unit, which is a group of microbes that grows from a single cell on a petri plate; DMSO means dimethyl sulfoxide; MHB means Mueller-Hinton broth; caMHB means cation-adjusted Mueller-Hinton broth; MIC means minimum inhibitory concentration—the lower the MIC, the more efficient the combination against the respective bacterial strain.
General Protocol Used in Examples 3-10 Employing a Fixed Ratio of sBLI to Antibiotic within Each Experiment:
Antimicrobial susceptibility testing (AST) by broth microdilution (MIC determination) was performed according to The European Committee on Antimicrobial Susceptibility Testing (EUCAST) guidelines (see Reading guide for broth microdilution Version 5.0, 2024: https://www.eucast.org).
Sterile clear round bottom polystyrene (non-treated) 96-well microplates (Corning 3788) were used for making serial two-fold dilutions of the antibiotic and the serine sBLI in cation-adjusted Mueller Hinton II broth (caMHB; Thermo Scientific, T3462, containing 29.4 μM Zn^2+), across the columns of the microtiter plate ([…]; columns 1-12). The checkerboard plates were all made by keeping the sBLI at a fixed ratio relative to antibiotic (absolute concentrations of each, in μg/mL) to all wells containing sample in each plate. Additionally, a set of samples were included in each test plate, where the zinc chelator was added, at various fixed concentrations, of 16 μg/mL, 8 μg/mL and/or 4 μg/mL (as specified in each Example). All sample wells contained growth medium (caMHB), and inoculated bacteria at a final inoculum between 3-7×10^5 CFU/mL. […] Synergy for the triple combination (antibiotic, sBLI, and zinc chelator) was defined as when the MIC in rows containing the zinc chelator in combination with antibiotic and sBLI (triple combination), was lower than for rows containing antibiotic and sBLI (double combination; no zinc chelator).
(§1) Two technical replicates were performed for each sample. An X in rows 1-8 in the table indicates bacterial growth, while a blank cell indicates no growth. Concentrations (μg/mL) of CAZ are given in row 0a). Concentrations (μg/mL) of AVI are given in row 0b. The zinc chelator was added in fixed concentrations, at 16 μg/mL in rows 3 and 4, at 8 μg/mL in rows 5 and 6, and 4 μg/mL in rows 7 and 8. As a control, the effect of CAZ and AVI (no zinc chelator) was tested (rows 1 and 2). All wells contained bacterial growth medium (caMHB, 29.4 μM Zn^2+) and were inoculated with the test bacterium. The grey cells indicate the CAZ MIC.
as §1, with “FEP” for “CAZ”, “0a.” for “0a).”
Two technical replicates were performed for each sample. An X in rows 1-8 in the table indicates bacterial growth, while a blank cell indicates no growth. Concentrations (μg/mL) of FEP are given in row 0a. Concentrations (μg/mL) of SUL are given in row 0b. […]

[2] = tested on: certain strains of Pseudomonas aeruginosa; settings: in combination with meropenem; cited from earlier work

CN(C[C@H](O)[C@@H](O)[C@H](O)[C@H](O)CO)C(=O)c1ccc(CN(Cc2ccccn2)Cc2ccccn2)nc1 [zinc chelator]
poor effect: effect of combination with meropenem [2]
Synergy: synergy with the zinc chelator ([1]; zinc chelator 4 μg/mL, with FEP and TAZ (fixed ratio)) | synergy with the zinc chelator ([1]; zinc chelator 8 μg/mL, with CAZ and AVI (fixed ratio)) | synergy with the zinc chelator ([1]; zinc chelator 8 μg/mL, with FEP and AVI (fixed ratio)) | synergy with the zinc chelator ([1]; zinc chelator 8 μg/mL, with FEP and SUL (fixed ratio)) | synergy with the zinc chelator ([1]; zinc chelator 8 μg/mL, with FEP and TAZ (fixed ratio)) | synergy with the zinc chelator ([1]; zinc chelator 16 μg/mL, with CAZ and AVI (fixed ratio)) | synergy with the zinc chelator ([1]; zinc chelator 16 μg/mL, with FEP and AVI (fixed ratio)) | synergy with the zinc chelator ([1]; zinc chelator 16 μg/mL, with FEP and SUL (fixed ratio)) | synergy with the zinc chelator ([1]; zinc chelator 16 μg/mL, with FEP and TAZ (fixed ratio))
